Assays:
HUVEC = experiment: Antiproliferative activity against human HUVEC cells assessed as reduction in cell viability after 72 hrs by trypan blue assay; assay type: functional
A-431 = experiment: Antiproliferative activity against human A431 cells assessed as cell viability after 72 hrs by trypan blue assay; assay type: functional; conditions: A-431, 72 h
HeLa = experiment: Antiproliferative activity against human HeLa cells assessed as cell viability after 72 hrs by trypan blue assay; assay type: functional
MSTO-211H = experiment: Antiproliferative activity against human MSTO-211H cells assessed as cell viability after 72 hrs by trypan blue assay; assay type: functional
[1] = biological target: Platelet-derived growth factor receptor beta (Homo sapiens) (UniProt P09619); experiment: Inhibition of human PDGFRbeta at 10 uM by kinase inhibition assay
Aorta [2] = experiment: Anti-angiogenic activity in rat aortic explant assessed as microvessel sprouting inhibition at 10 uM incubated for 7 days by rat aortic ring assay; assay type: functional; conditions: 168 h
[3] = biological target: RAF proto-oncogene serine/threonine-protein kinase (Homo sapiens) (UniProt P04049); experiment: Inhibition of human RAF1 at 10 uM by kinase inhibition assay
Aorta [4] = experiment: Anti-angiogenic activity in rat aortic explant assessed as microvessel sprouting inhibition at 5 uM incubated for 7 days by rat aortic ring assay; assay type: functional; conditions: 168 h
[5] = biological target: Rho-associated protein kinase 1 (Homo sapiens) (UniProt Q13464); experiment: Inhibition of human ROCK1 at 10 uM by kinase inhibition assay
[6] = biological target: RAC-alpha serine/threonine-protein kinase (Homo sapiens) (UniProt P31749); experiment: Inhibition of human Akt1 at 10 uM by kinase inhibition assay
[7] = biological target: T1, Aurora kinase A (Homo sapiens) (UniProt O14965); experiment: Inhibition of human AurA kinase at 10 uM by kinase inhibition assay
T1 sequence (whole entry): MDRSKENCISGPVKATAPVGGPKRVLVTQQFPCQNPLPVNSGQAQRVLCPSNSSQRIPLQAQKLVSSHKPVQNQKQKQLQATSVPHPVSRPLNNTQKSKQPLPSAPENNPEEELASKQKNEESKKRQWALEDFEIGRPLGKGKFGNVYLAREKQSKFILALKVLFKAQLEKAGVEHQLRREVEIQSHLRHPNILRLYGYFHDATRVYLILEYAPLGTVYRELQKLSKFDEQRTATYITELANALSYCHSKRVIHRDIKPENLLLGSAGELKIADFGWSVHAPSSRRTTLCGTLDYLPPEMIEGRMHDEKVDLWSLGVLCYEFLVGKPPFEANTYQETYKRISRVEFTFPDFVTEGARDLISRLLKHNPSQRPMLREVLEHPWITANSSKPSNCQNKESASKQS

[8] = biological target: Focal adhesion kinase 1 (Homo sapiens) (UniProt Q05397); experiment: Inhibition of human FAK at 10 uM by kinase inhibition assay
[9] = biological target: Cyclin-dependent kinase 1 (Homo sapiens) (UniProt P06493); experiment: Inhibition of human CDK1 at 10 uM by kinase inhibition assay
Aorta [10] = experiment: Anti-angiogenic activity in rat aortic explant assessed as microvessel sprouting inhibition at 100 nM incubated for 7 days by rat aortic ring assay; assay type: functional; conditions: 168 h
[11] = biological target: Mitogen-activated protein kinase 3 (Homo sapiens) (UniProt P27361); experiment: Inhibition of human ERK1 at 10 uM by kinase inhibition assay
Aorta [12] = experiment: Anti-angiogenic activity in rat aortic explant assessed as microvessel sprouting inhibition at 1 uM incubated for 7 days by rat aortic ring assay; assay type: functional; conditions: 168 h
[13] = biological target: Dual specificity mitogen-activated protein kinase kinase 1 (Homo sapiens) (UniProt Q02750); experiment: Inhibition of human MEK1 at 10 uM by kinase inhibition assay
[14] = biological target: Proto-oncogene tyrosine-protein kinase Src (Homo sapiens) (UniProt P12931); experiment: Inhibition of human Src kinase at 10 uM by kinase inhibition assay
[15] = biological target: Vascular endothelial growth factor receptor 2 (Homo sapiens, UniProt P35968); experiment: Inhibition of human KDR incubated for 50 mins by omnia tyr peptide 8 substrate based fluorescence assay
[16] = biological target: Epidermal growth factor receptor (Homo sapiens, UniProt P00533)
HL-60 = experiment: Antiproliferative activity against human HL60 cells assessed as growth inhibition; assay type: functional

Sequence of Focal adhesion kinase 1 (Homo sapiens) (Q05397 2-1052 limits assumed): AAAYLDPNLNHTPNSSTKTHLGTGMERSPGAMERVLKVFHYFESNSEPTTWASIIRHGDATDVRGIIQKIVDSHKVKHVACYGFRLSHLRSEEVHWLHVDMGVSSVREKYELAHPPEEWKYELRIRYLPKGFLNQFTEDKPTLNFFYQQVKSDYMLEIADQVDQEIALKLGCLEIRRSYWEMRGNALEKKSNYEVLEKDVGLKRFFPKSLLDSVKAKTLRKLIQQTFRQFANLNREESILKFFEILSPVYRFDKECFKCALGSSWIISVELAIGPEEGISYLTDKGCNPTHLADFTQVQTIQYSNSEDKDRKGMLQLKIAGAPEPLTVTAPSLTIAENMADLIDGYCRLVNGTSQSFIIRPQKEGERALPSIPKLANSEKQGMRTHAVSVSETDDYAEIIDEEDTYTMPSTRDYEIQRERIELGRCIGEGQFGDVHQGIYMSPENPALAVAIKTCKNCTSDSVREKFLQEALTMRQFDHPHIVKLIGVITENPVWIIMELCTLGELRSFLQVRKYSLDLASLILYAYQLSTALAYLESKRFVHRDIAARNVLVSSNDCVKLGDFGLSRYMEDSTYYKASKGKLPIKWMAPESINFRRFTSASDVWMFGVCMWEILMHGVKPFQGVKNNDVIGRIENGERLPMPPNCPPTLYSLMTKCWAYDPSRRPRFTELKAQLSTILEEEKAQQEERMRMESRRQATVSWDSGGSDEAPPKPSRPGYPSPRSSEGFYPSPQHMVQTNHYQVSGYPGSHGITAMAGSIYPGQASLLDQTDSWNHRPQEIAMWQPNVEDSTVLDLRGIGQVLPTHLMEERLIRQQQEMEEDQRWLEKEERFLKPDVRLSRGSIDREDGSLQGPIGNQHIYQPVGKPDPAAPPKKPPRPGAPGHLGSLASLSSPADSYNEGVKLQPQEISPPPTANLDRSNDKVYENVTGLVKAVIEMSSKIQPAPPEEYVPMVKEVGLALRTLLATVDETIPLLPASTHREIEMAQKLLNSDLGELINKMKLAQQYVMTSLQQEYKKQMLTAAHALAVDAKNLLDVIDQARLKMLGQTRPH
Sequence of Dual specificity mitogen-activated protein kinase kinase 1 (Homo sapiens) (Q02750 whole entry): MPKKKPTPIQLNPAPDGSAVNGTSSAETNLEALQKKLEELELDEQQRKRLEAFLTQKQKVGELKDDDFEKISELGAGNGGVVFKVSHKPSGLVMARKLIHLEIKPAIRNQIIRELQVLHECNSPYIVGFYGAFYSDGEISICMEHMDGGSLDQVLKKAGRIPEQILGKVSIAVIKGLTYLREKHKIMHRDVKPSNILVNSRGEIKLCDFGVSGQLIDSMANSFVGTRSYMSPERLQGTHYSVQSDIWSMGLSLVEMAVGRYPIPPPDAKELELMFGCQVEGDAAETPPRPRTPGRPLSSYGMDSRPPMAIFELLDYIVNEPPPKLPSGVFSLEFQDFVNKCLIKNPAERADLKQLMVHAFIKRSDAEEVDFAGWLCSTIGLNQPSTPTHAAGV
Sequence of Rho-associated protein kinase 1 (Homo sapiens) (Q13464 2-1354 limits assumed): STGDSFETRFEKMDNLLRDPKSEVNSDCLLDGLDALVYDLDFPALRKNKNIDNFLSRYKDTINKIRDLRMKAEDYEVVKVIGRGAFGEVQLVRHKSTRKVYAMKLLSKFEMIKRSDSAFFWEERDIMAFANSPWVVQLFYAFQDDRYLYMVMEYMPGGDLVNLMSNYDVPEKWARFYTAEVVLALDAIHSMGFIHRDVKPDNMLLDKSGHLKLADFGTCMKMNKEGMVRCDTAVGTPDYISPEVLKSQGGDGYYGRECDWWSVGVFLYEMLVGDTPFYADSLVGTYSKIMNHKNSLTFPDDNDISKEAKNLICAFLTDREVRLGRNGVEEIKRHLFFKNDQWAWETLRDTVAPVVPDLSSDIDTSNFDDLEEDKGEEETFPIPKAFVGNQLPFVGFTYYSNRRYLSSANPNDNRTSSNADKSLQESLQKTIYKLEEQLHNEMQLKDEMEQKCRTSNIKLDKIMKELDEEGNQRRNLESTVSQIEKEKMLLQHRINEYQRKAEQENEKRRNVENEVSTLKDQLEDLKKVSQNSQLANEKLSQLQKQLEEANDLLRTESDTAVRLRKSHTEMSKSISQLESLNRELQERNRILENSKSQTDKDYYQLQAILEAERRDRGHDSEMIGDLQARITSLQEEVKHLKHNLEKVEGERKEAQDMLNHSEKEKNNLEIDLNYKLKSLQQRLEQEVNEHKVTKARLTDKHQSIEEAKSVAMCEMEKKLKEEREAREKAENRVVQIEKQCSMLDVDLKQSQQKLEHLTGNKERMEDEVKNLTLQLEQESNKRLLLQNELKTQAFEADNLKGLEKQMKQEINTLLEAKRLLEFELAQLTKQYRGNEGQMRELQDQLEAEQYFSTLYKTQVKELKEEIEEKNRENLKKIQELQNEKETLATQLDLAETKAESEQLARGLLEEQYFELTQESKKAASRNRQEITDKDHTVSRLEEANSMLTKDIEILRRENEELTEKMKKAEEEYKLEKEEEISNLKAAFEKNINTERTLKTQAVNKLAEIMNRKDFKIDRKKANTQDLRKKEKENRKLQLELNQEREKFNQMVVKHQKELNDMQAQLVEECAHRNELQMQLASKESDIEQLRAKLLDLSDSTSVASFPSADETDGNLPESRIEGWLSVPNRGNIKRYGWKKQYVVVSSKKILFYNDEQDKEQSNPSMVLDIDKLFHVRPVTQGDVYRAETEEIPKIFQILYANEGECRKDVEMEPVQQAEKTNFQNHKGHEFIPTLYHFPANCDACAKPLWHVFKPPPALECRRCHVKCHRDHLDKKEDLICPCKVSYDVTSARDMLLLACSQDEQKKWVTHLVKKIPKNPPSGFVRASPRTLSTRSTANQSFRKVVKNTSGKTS
Sequence of Mitogen-activated protein kinase 3 (Homo sapiens) (P27361 whole entry): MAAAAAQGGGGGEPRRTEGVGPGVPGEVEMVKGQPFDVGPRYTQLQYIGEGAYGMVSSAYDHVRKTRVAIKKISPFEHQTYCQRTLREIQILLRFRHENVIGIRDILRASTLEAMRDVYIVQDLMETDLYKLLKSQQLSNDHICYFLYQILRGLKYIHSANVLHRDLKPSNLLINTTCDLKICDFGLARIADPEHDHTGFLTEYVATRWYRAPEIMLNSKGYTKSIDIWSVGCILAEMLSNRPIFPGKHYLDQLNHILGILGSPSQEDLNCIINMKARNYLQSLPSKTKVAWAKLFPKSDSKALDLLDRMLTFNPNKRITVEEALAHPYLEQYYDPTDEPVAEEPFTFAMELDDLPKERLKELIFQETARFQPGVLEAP
Sequence of RAF proto-oncogene serine/threonine-protein kinase (Homo sapiens) (P04049 whole entry): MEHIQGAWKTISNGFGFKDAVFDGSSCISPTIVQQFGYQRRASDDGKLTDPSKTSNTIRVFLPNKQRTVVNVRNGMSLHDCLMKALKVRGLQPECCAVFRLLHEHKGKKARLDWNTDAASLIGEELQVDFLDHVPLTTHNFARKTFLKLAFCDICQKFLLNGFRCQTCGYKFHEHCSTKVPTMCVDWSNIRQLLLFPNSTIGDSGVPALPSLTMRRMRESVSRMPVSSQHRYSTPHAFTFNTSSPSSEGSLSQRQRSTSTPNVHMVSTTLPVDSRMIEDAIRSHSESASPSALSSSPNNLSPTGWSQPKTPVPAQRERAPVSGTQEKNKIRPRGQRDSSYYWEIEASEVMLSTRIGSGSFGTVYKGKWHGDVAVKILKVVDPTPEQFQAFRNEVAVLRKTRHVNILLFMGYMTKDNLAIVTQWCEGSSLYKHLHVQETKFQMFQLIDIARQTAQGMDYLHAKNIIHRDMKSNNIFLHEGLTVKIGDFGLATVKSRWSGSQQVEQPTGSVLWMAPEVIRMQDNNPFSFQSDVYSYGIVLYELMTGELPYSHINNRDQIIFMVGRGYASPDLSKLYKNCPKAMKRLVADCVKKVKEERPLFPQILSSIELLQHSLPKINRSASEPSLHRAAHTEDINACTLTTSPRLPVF
Sequence of RAC-alpha serine/threonine-protein kinase (Homo sapiens) (P31749 whole entry): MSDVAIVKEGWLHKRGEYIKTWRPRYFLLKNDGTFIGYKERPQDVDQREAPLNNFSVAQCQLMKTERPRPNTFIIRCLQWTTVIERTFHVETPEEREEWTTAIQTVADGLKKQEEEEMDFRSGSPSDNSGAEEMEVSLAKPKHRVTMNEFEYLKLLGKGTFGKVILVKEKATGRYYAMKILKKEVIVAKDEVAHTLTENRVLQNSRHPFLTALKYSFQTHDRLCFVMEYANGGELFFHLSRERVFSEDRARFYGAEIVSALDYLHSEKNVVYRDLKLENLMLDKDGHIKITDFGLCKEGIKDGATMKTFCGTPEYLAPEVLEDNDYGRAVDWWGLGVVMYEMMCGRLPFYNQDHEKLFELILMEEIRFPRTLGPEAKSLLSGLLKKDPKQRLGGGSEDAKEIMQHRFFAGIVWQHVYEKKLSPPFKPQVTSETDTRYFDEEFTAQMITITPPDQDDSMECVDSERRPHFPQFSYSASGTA
Sequence of Cyclin-dependent kinase 1 (Homo sapiens) (P06493 whole entry, looked up): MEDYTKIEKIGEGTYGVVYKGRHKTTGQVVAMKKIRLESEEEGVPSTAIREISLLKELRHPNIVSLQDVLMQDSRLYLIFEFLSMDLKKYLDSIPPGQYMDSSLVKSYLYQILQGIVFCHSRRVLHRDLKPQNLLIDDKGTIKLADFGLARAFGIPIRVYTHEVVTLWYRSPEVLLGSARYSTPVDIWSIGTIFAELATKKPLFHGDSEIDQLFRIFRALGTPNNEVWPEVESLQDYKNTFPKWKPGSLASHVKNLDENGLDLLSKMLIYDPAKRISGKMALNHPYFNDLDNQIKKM

Structure (SMILES)	GI50 (HUVEC) [µM]	GI50 (A-431) [µM]	GI50 (HeLa) [µM]	GI50 (MSTO-211H) [µM]	further results
COc1ccc(-c2ncc3c(n2)-c2ccc(OC)cc2SC3)cc1	4.8	> 20	> 20	> 20	–
COc1ccc(Nc2ncc3c(n2)-c2ccccc2SC3)cc1	0.45	0.96	0.7	1.08	inhibition [1]: 42%; inhibition at 10 µM (Aorta [2]): 96%; inhibition [3]: 4.1%; inhibition at 5 µM (Aorta [4]): 95%; inhibition [5]: -0.4%; inhibition [6]: 1.4%; inhibition [7]: 71.7%; inhibition [8]: 47.3%; inhibition [9]: 84.8%; inhibition at 0.1 µM (Aorta [10]): -8%; inhibition [11]: -1.8%; inhibition at 1 µM (Aorta [12]): 9%; inhibition [13]: 21.6%; inhibition [14]: 12%
Clc1ccc2c(c1)SCc1cnc(-c3ccccc3)nc1-2	2.3	> 20	> 20	> 20	–
c1ccc(CNc2ncc3c(n2)-c2ccccc2SC3)cc1	> 20	> 20	> 20	> 20	–
Cc1cc(C)c(/C=C2\C(=O)Nc3ccccc32)[nH]1 [SEMAXANIB]	13.6	–	–	–	inhibition at 10 µM (Aorta [2]): 100%; inhibition at 5 µM (Aorta [4]): 72%; inhibition at 0.1 µM (Aorta [10]): -12%; inhibition at 1 µM (Aorta [12]): -2%
Clc1ccc(-c2ncc3c(n2)-c2ccccc2SC3)cc1	11.3	> 20	> 20	> 20	–
COc1ccc2c(c1)SCc1cnc(Nc3ccccc3)nc1-2	4.3	> 20	20.1	15	IC50 [15]: > 50 µM
COc1ccc(Nc2ncc3c(n2)-c2ccc(OC)cc2SC3)cc1	0.74	0.96	0.83	1.08	IC50 [15]: 17.5 µM
COc1ccc2c(c1)SCc1cnc(NCc3ccccc3)nc1-2	> 20	> 20	> 20	> 20	–
COc1ccc(CNc2ncc3c(n2)-c2ccccc2SC3)cc1	> 20	> 20	> 20	> 20	–
c1ccc(Nc2ncc3c(n2)-c2ccccc2SC3)cc1	2.4	> 20	10.2	11.7	IC50 [15]: 8.2 µM
COc1ccc2c(c1)SCc1cnc(-c3ccccc3)nc1-2	2.9	6.5	> 20	11.9	inhibition [1]: -6%; inhibition [3]: 2.6%; IC50 [16]: 4.72 µM; inhibition [5]: -6.3%; inhibition [6]: -4%; inhibition [7]: -2.2%; inhibition [8]: 11.6%; inhibition [9]: -4.2%; inhibition [11]: -1.7%; inhibition [13]: 14.6%; inhibition [14]: 0.3%
COc1ccc2c(c1)SCc1cnc(-c3ccc(Cl)cc3)nc1-2	> 20	> 20	> 20	> 20	–
Clc1ccc2c(c1)SCc1cnc(Nc3ccccc3)nc1-2	> 20	> 20	> 20	> 20	IC50 [15]: > 50 µM
COc1ccc(Nc2ncc3c(n2)-c2ccc(Cl)cc2SC3)cc1	16.4	5.8	2.1	> 20	IC50 [16]: 21.6 µM; IC50 [15]: > 50 µM
COc1ccc2c(c1)SCc1cnc(Nc3ccc(Cl)cc3)nc1-2	> 20	> 20	> 20	> 20	IC50 [15]: > 50 µM
Clc1ccc(CNc2ncc3c(n2)-c2ccc(Cl)cc2SC3)cc1	17	> 20	> 20	> 20	–
Clc1ccc(CNc2ncc3c(n2)-c2ccccc2SC3)cc1	12.3	> 20	> 20	> 20	–
Clc1ccc2c(c1)SCc1cnc(NCc3ccccc3)nc1-2	15.1	> 20	> 20	> 20	–
COc1ccc2c(c1)SCc1cnc(NCc3ccc(Cl)cc3)nc1-2	> 20	> 20	> 20	> 20	–
Clc1ccc(Nc2ncc3c(n2)-c2ccc(Cl)cc2SC3)cc1	0.35	2.2	1.5	1.6	inhibition [1]: 2.5%; inhibition at 10 µM (Aorta [2]): 98%; inhibition [3]: -1.5%; inhibition at 5 µM (Aorta [4]): 88%; IC50 [16]: 45.7 µM; inhibition [5]: -5.6%; IC50 [15]: 5.6 µM; inhibition [6]: 3%; inhibition [7]: 0%; inhibition [8]: -0.9%; inhibition [9]: -3.2%; inhibition at 0.1 µM (Aorta [10]): -0.5%; inhibition [11]: -4.3%; inhibition at 1 µM (Aorta [12]): 15%; inhibition [13]: 5.9%; inhibition [14]: 8.8%
COc1ccc(-c2ncc3c(n2)-c2ccccc2SC3)cc1	12	> 20	> 20	> 20	–
COc1ccc(CNc2ncc3c(n2)-c2ccc(OC)cc2SC3)cc1	> 20	> 20	> 20	> 20	–
COc1ccc2c(c1)SCc1ncc(-c3ccccc3)nc1-2	–	–	–	–	GI50 (HL-60): 7.15 µM
c1ccc(-c2ncc3c(n2)-c2ccccc2SC3)cc1	4	> 20	> 20	> 20	–
COc1ccc(-c2ncc3c(n2)-c2ccc(Cl)cc2SC3)cc1	4.7	> 20	> 20	> 20	–
COc1ccc(CNc2ncc3c(n2)-c2ccc(Cl)cc2SC3)cc1	12	> 20	> 20	> 20	–
Clc1ccc(-c2ncc3c(n2)-c2ccc(Cl)cc2SC3)cc1	15.3	> 20	> 20	> 20	–
Clc1ccc(Nc2ncc3c(n2)-c2ccccc2SC3)cc1	7.3	> 20	15.6	11.5	IC50 [15]: > 50 µM
